# Values of other authors in patent US20240390444A1, “COMPOSITIONS AND METHODS LOWERING GLYCEMIC RESPONSE TO IMPROVE SLEEP QUALITY AND/OR SUBSEQUENT BEHAVIOURAL OUTCOMES” (SOCIETE DES PRODUITS NESTLE S.A., priority 2021, published 2024).
# Settings: 12.5 mg DNJ in capsule, co-ingestion with maltodextrin
smiles,measurement,value
"OC[C@H]1NC[C@H](O)[C@@H](O)[C@@H]1O [DNJ, 1-deoxynojirimycin]",reduction of PPGR,14%
